Measurements published in BigSolDB 2.1.

CC(=O)c1ccc2ccccc2c1O
Settings	solubility (mole fraction)
in cyclohexane, 292.4 K	0.0076
in cyclohexane, 296.55 K	0.0092
in cyclohexane, 300.65 K	0.0114
in cyclohexane, 304.9 K	0.014
in cyclohexane, 308.6 K	0.0173
in cyclohexane, 313.55 K	0.0222
in cyclohexane, 318.5 K	0.0285
in cyclohexane, 324.75 K	0.0382
in cyclohexane, 329.65 K	0.0511
in cyclohexane, 333.95 K	0.0679
in cyclohexane, 337.6 K	0.0872
in cyclohexane, 340.65 K	0.109
in ethanol, 289.15 K	0.0049
in ethanol, 292.6 K	0.0055
in ethanol, 296.25 K	0.0064
in ethanol, 299.95 K	0.0075
in ethanol, 304.55 K	0.0089
in ethanol, 307.95 K	0.0104
in ethanol, 310.55 K	0.0117
in ethanol, 312.9 K	0.013
in ethanol, 316.4 K	0.015
in ethanol, 319.6 K	0.0174
in ethanol, 323.4 K	0.0207
in ethanol, 327.35 K	0.025
in ethanol, 331.2 K	0.0313
in ethanol, 334.95 K	0.0399
in ethanol, 338.65 K	0.052
in ethanol, 342.25 K	0.0696
in n-butanol, 280.85 K	0.0054
in n-butanol, 285.65 K	0.0065
in n-butanol, 291.55 K	0.0084
in n-butanol, 295.65 K	0.0101
in n-butanol, 299.45 K	0.012
in n-butanol, 303.75 K	0.0144
in n-butanol, 308.25 K	0.0179
in n-butanol, 312.75 K	0.0219
in n-butanol, 318.65 K	0.0291
in n-butanol, 325.85 K	0.0431
in n-butanol, 328.95 K	0.0523
in n-butanol, 332.65 K	0.0648
in n-butanol, 335.75 K	0.0788
in n-butanol, 336.45 K	0.0831
in n-heptane, 290.65 K	0.008
in n-heptane, 295.25 K	0.0099
in n-heptane, 299.9 K	0.0123
in n-heptane, 304.65 K	0.0153
in n-heptane, 310.15 K	0.019
in n-heptane, 315.4 K	0.0239
in n-heptane, 321.65 K	0.0306
in n-heptane, 327.2 K	0.0395
in n-heptane, 332.65 K	0.05
in n-heptane, 338.55 K	0.0627
in n-heptane, 344.35 K	0.0898
in n-heptane, 348.35 K	0.116
in n-hexane, 281.65 K	0.0045
in n-hexane, 286.55 K	0.0056
in n-hexane, 289.75 K	0.0065
in n-hexane, 293.45 K	0.0077
in n-hexane, 297.35 K	0.0091
in n-hexane, 301.95 K	0.0107
in n-hexane, 305.45 K	0.0129
in n-hexane, 309.95 K	0.0156
in n-hexane, 314.25 K	0.0189
in n-hexane, 319.55 K	0.0236
in n-hexane, 324.05 K	0.0288

CC(=O)c1c(O)ccc2ccccc12
Settings	solubility (mole fraction)
in cyclohexane, 292.9 K	0.0181
in cyclohexane, 296.6 K	0.0229
in cyclohexane, 300.7 K	0.0292
in cyclohexane, 304.8 K	0.0379
in cyclohexane, 308.85 K	0.0505
in cyclohexane, 312.6 K	0.068
in cyclohexane, 316.25 K	0.0957
in cyclohexane, 318.95 K	0.132
in cyclohexane, 320.35 K	0.162
in cyclohexane, 321.85 K	0.19
in ethanol, 285.7 K	0.0615
in ethanol, 288.9 K	0.0712
in ethanol, 293.05 K	0.0859
in ethanol, 297 K	0.104
in ethanol, 301.15 K	0.135
in ethanol, 304.55 K	0.168
in ethanol, 310.05 K	0.234
in ethanol, 314.65 K	0.321
in n-butanol, 282.55 K	0.0555
in n-butanol, 288.55 K	0.0724
in n-butanol, 293.35 K	0.0897
in n-butanol, 299 K	0.117
in n-butanol, 303.95 K	0.155
in n-butanol, 307.95 K	0.201
in n-butanol, 311.75 K	0.257
in n-butanol, 314.95 K	0.328
in n-butanol, 317.35 K	0.389
in n-butanol, 318.15 K	0.408
in n-heptane, 288.75 K	0.0133
in n-heptane, 293.15 K	0.0163
in n-heptane, 296.95 K	0.0198
in n-heptane, 301.8 K	0.0239
in n-heptane, 302.4 K	0.0245
in n-heptane, 306.55 K	0.0305
in n-heptane, 312.05 K	0.0404
in n-heptane, 317.15 K	0.056
in n-heptane, 322.05 K	0.079
in n-heptane, 326.05 K	0.115
in n-heptane, 328.45 K	0.166
in n-heptane, 329.25 K	0.214
in n-hexane, 283.75 K	0.0082
in n-hexane, 289.25 K	0.0107
in n-hexane, 295.55 K	0.0141
in n-hexane, 299.25 K	0.0175
in n-hexane, 305.2 K	0.0242
in n-hexane, 310.6 K	0.032
in n-hexane, 311.45 K	0.0339
in n-hexane, 314.8 K	0.0414
in n-hexane, 319.05 K	0.0529
in n-hexane, 323.45 K	0.0716
